The test system of assay [1] is human mucoepidermoid pulmonary carcinoma cell line NCI-H292. Nature of the assay: Mucin secretion (MUC4, MUC5AC) by ELISA in NCI-H292 cells. Type of assay: cell-based. As to conditions: 24 hours, read-out: % increase in mucin secretion vs. non-treated control group; for activation at 0.8 µg/mL: 0.8 μg/mL; for activation at 4 µg/mL: 4 μg/mL; for activation at 20 µg/mL: 20 μg/mL; for activation at 100 µg/mL: 100 μg/mL. The protocol: 2×10^5 cells/well of the human mucoepidermoid pulmonary carcinoma cell line NCI-H292 (ATCC, #CRL-1848) were seeded on a 96-well plate, and treated with 3′,4′,5-trimethoxy flavone derivatives at various concentrations of 0.16 to 100 μg/mL for 24 hours. Thereafter, secretion levels of representative transmembrane mucin MUC4 and secretory mucin MUC5AC were measured by enzyme-linked immunosorbent assay (ELISA).
(In general: In an ELISA, binding on a coated surface is turned into a signal by an enzyme label.)

The test system of assay [2] is rabbit model of dry eye syndrome. Nature of the assay: Rose Bengal assay of ocular surface damage in N-acetylcysteine-induced rabbit dry eye syndrome model. Type of assay: in vivo, New Zealand White (NZW) rabbits. As to conditions: 0.5% solution instilled into conjunctival sac 4 times/day (0.1 mL) for seven days; Mean ± S.D. The protocol: (§1) Male New Zealand White (NZW) rabbits were randomly assigned into two groups, each consisting of 5 animals. In order to induce dry eye syndrome, N-acetylcysteine was first dissolved at a concentration of 20% in physiological saline. Then, the rabbit's lower eyelid was pulled slightly away from the globe to form a cup shape and the above-prepared N-acetylcysteine solution was instilled into the conjunctival sac six times every 2 hours, resulting in establishment of an animal model of dry eye syndrome. 3′,4′,5-trimethoxy flavone derivatives were dissolved at a concentration of 0.5% in a 0.1N sodium hydroxide solution which was then titrated to pH 7.0 to 8.0 with 10% acetic acid. From the following day after induction of dry eye syndrome, the titrated 3′,4′,5-trimethoxy flavone derivatives were repeatedly instilled into conjunctival sacs of animals at a dose frequency of 4 times/day (0.1 mL/each time) for seven consecutive days. On the next day following the induction of dry eye syndrome and upon completion of the experiment, the degree of ocular surface damage was evaluated to calculate a damage decrease rate (%) using Rose Bengal assay, and mucus secretion in the conjunctiva was quantitatively analyzed using Alcian blue assay. More specifically referring to Rose Bengal assay, 10 μl of a 1% Rose Bengal solution was dropped into the eyes of animals, and distribution and intensity of Rose Bengal staining were scored according to the method disclosed in Urashima et al., Cornea, 23:613-9, 2004. For Alcian blue assay, the rabbit's conjunctivae were excised, weighed, stained with a 0.1% Alcian blue solution for 2 hours and then washed with a 0.25 M sucrose solution. Following extraction with a 0.5 M magnesium chloride solution, the absorbance was measured at 605 nm.

For assay [3] the test system is unchanged. Nature of the assay: Alcian blue assay of conjunctival mucus secretion in N-acetylcysteine-induced rabbit dry eye syndrome model. It counts as in vivo, New Zealand White (NZW) rabbits. As to conditions: 0.5% solution instilled 4 times/day (0.1 mL) for seven days; conjunctiva, absorbance at 605 nm; Mean ± S.D. How it is done:
as §1

Structures are written as SMILES.

Take `COc1ccc(-c2cc(=O)c3c(OC)cc(OCC(=O)O)cc3o2)cc1OC.O` [7-carboxymethyloxy-3′,4′,5-trimethoxy flavone monohydrate]: in assay [1], the activation at 0.8 µg/mL turned out to be 24.8%, the activation at 4 µg/mL was 39.1%, the activation at 20 µg/mL is 52.5% and the activation at 100 µg/mL is 75.9%. Further, the “Rose Bengal Assay Damage decrease rate (%)” value in assay [2] amounted to 88.5 ± 4.7 %. Also, the “Alcian Blue Assay Absorbance/g tissue” value in assay [3] is 0.38 ± 0.08 Absorbance/g tissue.
Consider `COc1ccc(-c2cc(=O)c3c(OC)cc(OCc4nnn[nH]4)cc3o2)cc1OC` [Example 1, 7-(tetrazol-5-ylmethyloxy)-3′,4′,5-trimethoxy flavone], for which, in assay [1], the activation at 0.8 µg/mL was found to be 18.7%, the activation at 4 µg/mL was 28.1%, the activation at 20 µg/mL came out at 57.8% and the activation at 100 µg/mL was found to be 52%.
Turning to `COc1ccc(-c2cc(=O)c3c(OC)cc(OCC(N)=O)cc3o2)cc1OC` [Example 3, 7-{(carbamoyl)methyloxy}-3′,4′,5-trimethoxy flavone], in assay [1], the activation at 0.8 µg/mL turned out to be 2.2%, the activation at 4 µg/mL was 6.6%, the activation at 20 µg/mL is 10.4% and the activation at 100 µg/mL was 15.8%.
Regarding `COc1ccc(-c2cc(=O)c3c(OC)cc(OCC(=O)NC#N)cc3o2)cc1OC` [Example 4, 7-{(N-cyanocarbamoyl)-methyloxy}-3′,4′,5-trimethoxy flavone], in assay [1], the activation at 20 µg/mL came out at 4.3% and the activation at 100 µg/mL turned out to be 25.2%. Further, in assay [2], the “Rose Bengal Assay Damage decrease rate (%)” value turned out to be 83.8 ± 4.6 %. Besides, in assay [3], the “Alcian Blue Assay Absorbance/g tissue” value stood at 0.24 ± 0.19 Absorbance/g tissue.
For the compound `COc1ccc(-c2cc(=O)c3c(OC)cc(OCC(=O)NS(=O)(=O)c4ccccc4)cc3o2)cc1OC` [Example 5, 7-{(N-benzenesulfonylcarbamoyl)methyloxy}-3′,4′,5-trimethoxy flavone], in assay [1], the activation at 0.8 µg/mL amounted to 43.9%, the activation at 4 µg/mL stood at 45.4%, the activation at 20 µg/mL came to 35.4% and the activation at 100 µg/mL came out at 70.9%. Besides, in assay [2], the “Rose Bengal Assay Damage decrease rate (%)” value is recorded as 70.1 ± 5.2 %. The “Alcian Blue Assay Absorbance/g tissue” value in assay [3] is reported as 0.32 ± 0.09 Absorbance/g tissue.
Turning to `COc1ccc(-c2cc(=O)c3c(OC)cc(OCC(=O)NS(N)(=O)=O)cc3o2)cc1OC` [Example 8, 7-{(aminosulfonylcarbamoyl)methyloxy}-3′,4′,5-trimethoxy flavone], in assay [1], the activation at 0.8 µg/mL turned out to be 4.4%, the activation at 4 µg/mL is 10.2%, the activation at 20 µg/mL is 15.4% and the activation at 100 µg/mL was determined as 21.4%.
For `COc1ccc(-c2cc(=O)c3c(OC)cc(OCC(=O)NS(C)(=O)=O)cc3o2)cc1OC` [Example 9, 7-{(methylsulfonylcarbamoyl)methyloxy}-3′,4′,5-trimethoxy flavone], in assay [1], the activation at 0.8 µg/mL turned out to be 9.7%, the activation at 4 µg/mL amounted to 15.9%, the activation at 20 µg/mL stood at 37.4% and the activation at 100 µg/mL was 43.3%. Also, the “Rose Bengal Assay Damage decrease rate (%)” value in assay [2] was 76.8 ± 8.4 %. In addition, the “Alcian Blue Assay Absorbance/g tissue” value in assay [3] worked out at 0.35 ± 0.13 Absorbance/g tissue.
Regarding `COc1ccc(-c2cc(=O)c3c(OC)cc(OCC(=O)NC(N)=O)cc3o2)cc1OC` [Example 10, 7-{(carbamylcarbamoyl)methyloxy}-3′,4′,5-trimethoxy flavone], in assay [1], the activation at 4 µg/mL was found to be 6.7%, the activation at 20 µg/mL is 15.4% and the activation at 100 µg/mL amounted to 25.9%.
Consider `COc1ccc(-c2cc(=O)c3c(OC)cc(OCC(=O)NC(C)=O)cc3o2)cc1OC` [Example 12, 7-{(acetylcarbamoyl)methyloxy}-3′,4′,5-trimethoxy flavone], for which, in assay [1], the activation at 0.8 µg/mL stood at 15.2%, the activation at 4 µg/mL worked out at 13.6%, the activation at 20 µg/mL turned out to be 20.5% and the activation at 100 µg/mL was found to be 30.2%.

The values above are taken from patent US8203011B2, “3′,4′,5-trimethoxy flavone derivatives as stimulant of mucus secretion, method for the same, and pharmaceutical composition comprising the same” (Dong-A Pharm. Co., Ltd., priority 2007, dated 2012).
